Laboratory results: the supplement of paper PMC5908809

Key:
[1] = test system: normal NK cells expanded with K562-aAPC; test: percent inhibition of viability; higher = more inhibition; details: 72 h, IL-2 2.5 ng/mL
Description: (§1)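 Drug sensitivity and resistance testing on K562-aAPC-expanded normal NK cells: 5 concentrations (10-fold steps over a 10,000-fold range), 72 h at 37 °C, viability by CellTiter-Glo normalised to DMSO and benzethonium chloride controls; DSS from the fitted curve.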

DERL-7 (IL-2 2.5 ng/mL) [2] = test: as above; details: 72 h
IMC-1 (IL-2 20 ng/mL) [3] = test: as above; details: 72 h
KAI3 (IL-2 2.5 ng/mL) [4] = test: as above; details: 72 h
KHYG-1 (IL-2 2.5 ng/mL) [5] = test: as above; details: 72 h
NK-92 (IL-2 2.5 ng/mL) [6] = test: as above; details: 72 h
NK-YS (IL-2 2.5 ng/mL) [7] = test: as above; details: 72 h
NKL (IL-2 2.5 ng/mL) [8] = test: as above; details: 72 h
SNK-6 (IL-2 2.5 ng/mL) [9] = test: as above; details: 72 h
YT (IL-2 2.5 ng/mL) [10] = test: as above; details: 72 h
[11] = test system: normal primary NK cells, pool 1 (3 donors) (IL-2 2.5 ng/mL); test: as above; details: 72 h
[12] = test system: normal primary NK cells, pool 1 (3 donors), resting (IL-2 0 ng/mL); test: as above; details: 72 h
[13] = test system: normal primary NK cells, pool 2 (3 donors) (IL-2 2.5 ng/mL); test: as above; details: 72 h
[14] = test system: normal primary NK cells, pool 3 (3 donors) (IL-2 2.5 ng/mL); test: as above; details: 72 h
[15] = test system: normal NK cells expanded with K562-aAPC; test: drug sensitivity score (DSS) (DSS units); higher = more sensitive; extreme values may be limits of the assay; details: 72 h; IL-2 2.5 ng/mL
Description: as §1

DERL-7 (IL-2 2.5 ng/mL) [16] = test: as above; details: 72 h
IMC-1 (IL-2 20 ng/mL) [17] = test: as above; details: 72 h
KAI3 (IL-2 2.5 ng/mL) [18] = test: as above; details: 72 h
KHYG-1 (IL-2 2.5 ng/mL) [19] = test: as above; details: 72 h
NK-92 (IL-2 2.5 ng/mL) [20] = test: as above; details: 72 h
NK-YS (IL-2 2.5 ng/mL) [21] = test: as above; details: 72 h
NKL (IL-2 2.5 ng/mL) [22] = test: as above; details: 72 h
SNK-6 (IL-2 2.5 ng/mL) [23] = test: as above; details: 72 h
YT (IL-2 2.5 ng/mL) [24] = test: as above; details: 72 h
[25] = test system: normal primary NK cells, pool 1 (3 donors) (IL-2 2.5 ng/mL); test: as above; details: 72 h
[26] = test system: normal primary NK cells, pool 1 (3 donors), resting (IL-2 0 ng/mL); test: as above; details: 72 h
[27] = test system: normal primary NK cells, pool 2 (3 donors) (IL-2 2.5 ng/mL); test: as above; details: 72 h
[28] = test system: normal primary NK cells, pool 3 (3 donors) (IL-2 2.5 ng/mL); test: as above; details: 72 h

Nc1nccc(-c2c(-c3ccc(F)cc3)ncn2C2CCCCC2)n1 (max concentration tested 10000 nM)
percent inhibition of viability [%]
Details	1 nM	10 nM	100 nM	1000 nM	10000 nM
DERL-7 (IL-2 2.5 ng/mL) [2]	-3.56	-1.12	-1.49	5.28	29
IMC-1 (IL-2 20 ng/mL) [3]	0.25	1.14	3.57	3.69	3.74
KAI3 (IL-2 2.5 ng/mL) [4]	3.53	23.9	60.5	90.9	66.9
KHYG-1 (IL-2 2.5 ng/mL) [5]	4.98	-0.44	4.5	3.42	31.7
NK-92 (IL-2 2.5 ng/mL) [6]	4.97	-2.54	18.6	23.2	49.9
NK-YS (IL-2 2.5 ng/mL) [7]	-3.68	-2.41	3.69	14.9	47.6
NKL (IL-2 2.5 ng/mL) [8]	-2.84	0.96	7.22	-3.94	-2.33
SNK-6 (IL-2 2.5 ng/mL) [9]	-26.2	-7.24	-4.71	7.8	64.1
YT (IL-2 2.5 ng/mL) [10]	4.57	3.69	9.54	15.5	35.5
[1]	-4.54	-4.14	0.36	-0.71	21.9
[11]	-3.43	-7.84	9.95	16.4	17.9
[12]	-19.6	-29.4	3.3	5.1	33.2
[13]	-8.96	-5.75	14	14.7	21.2
[14]	-7.45	-3.42	2.49	11.6	17

Details	drug sensitivity score
DERL-7 (IL-2 2.5 ng/mL) [16]	2.07
IMC-1 (IL-2 20 ng/mL) [17]	0
KAI3 (IL-2 2.5 ng/mL) [18]	25.2
KHYG-1 (IL-2 2.5 ng/mL) [19]	1.98
NK-92 (IL-2 2.5 ng/mL) [20]	6.29
NK-YS (IL-2 2.5 ng/mL) [21]	4.44
NKL (IL-2 2.5 ng/mL) [22]	0
SNK-6 (IL-2 2.5 ng/mL) [23]	4.81
YT (IL-2 2.5 ng/mL) [24]	3.49
[15]	0.68
[25]	3.09
[26]	2.37
[27]	4.42
[28]	1.17

Cc1sc2c(c1C)C(c1ccc(Cl)cc1)=N[C@@H](CC(=O)OC(C)(C)C)c1nnc(C)n1-2 [(+)JQ1] (max concentration tested 10000 nM)
percent inhibition of viability [%]
Details	DERL-7 (IL-2 2.5 ng/mL) [2]	KAI3 (IL-2 2.5 ng/mL) [4]	KHYG-1 (IL-2 2.5 ng/mL) [5]	NK-92 (IL-2 2.5 ng/mL) [6]	NK-YS (IL-2 2.5 ng/mL) [7]	NKL (IL-2 2.5 ng/mL) [8]	SNK-6 (IL-2 2.5 ng/mL) [9]	YT (IL-2 2.5 ng/mL) [10]	[11]	[12]
1 nM	3.63	-7.52	-9.07	-5.26	-10.6	-9.69	-15.8	1.34	1.42	-3.74
10 nM	11.6	-10.2	-3.7	-16.7	-2.12	-1.54	-1.34	-1.16	1.32	-13
100 nM	54.6	3.52	24.7	-31.8	19.8	29.4	12.2	8.16	9.32	-3.42
1000 nM	96.1	47.9	89.8	22.2	62.4	69	71.4	56.7	56.9	34
10000 nM	98.5	53.6	92.7	35.5	73.2	60.9	74.2	59.4	84.1	74.8

Details	drug sensitivity score
DERL-7 (IL-2 2.5 ng/mL) [16]	24.3
KAI3 (IL-2 2.5 ng/mL) [18]	9.24
KHYG-1 (IL-2 2.5 ng/mL) [19]	19.9
NK-92 (IL-2 2.5 ng/mL) [20]	4.26
NK-YS (IL-2 2.5 ng/mL) [21]	13.9
NKL (IL-2 2.5 ng/mL) [22]	16.6
SNK-6 (IL-2 2.5 ng/mL) [23]	15
YT (IL-2 2.5 ng/mL) [24]	11.7
[25]	12.1
[26]	8.55

COc1cc(C(=O)O)ccc1NC(=O)[C@@H]1N[C@@H](CC(C)(C)C)[C@](C#N)(c2ccc(Cl)cc2F)[C@H]1c1cccc(Cl)c1F [RG7388] (max concentration tested 10000 nM)
percent inhibition of viability [%]
Details	DERL-7 (IL-2 2.5 ng/mL) [2]	KAI3 (IL-2 2.5 ng/mL) [4]	KHYG-1 (IL-2 2.5 ng/mL) [5]	NK-92 (IL-2 2.5 ng/mL) [6]	NK-YS (IL-2 2.5 ng/mL) [7]	NKL (IL-2 2.5 ng/mL) [8]	SNK-6 (IL-2 2.5 ng/mL) [9]	YT (IL-2 2.5 ng/mL) [10]	[11]	[12]
1 nM	-5.33	5.19	-1.57	2.22	1.18	2.91	3.57	6.01	1.86	-11.7
10 nM	3.83	25.6	1.09	-12.5	18.7	8.19	25.5	14.9	-0.07	10.5
100 nM	51.1	39.8	-3.21	8.42	53.1	7.58	70.5	38.6	41.8	85.2
1000 nM	96.7	59.1	-4.2	8.41	82.9	5.83	81.8	50.9	90.3	92.2
10000 nM	101	68.4	53.8	65.4	99.9	67	92.7	86.7	99.1	93.6

Details	drug sensitivity score
DERL-7 (IL-2 2.5 ng/mL) [16]	23.8
KAI3 (IL-2 2.5 ng/mL) [18]	18.3
KHYG-1 (IL-2 2.5 ng/mL) [19]	2.54
NK-92 (IL-2 2.5 ng/mL) [20]	5
NK-YS (IL-2 2.5 ng/mL) [21]	23.3
NKL (IL-2 2.5 ng/mL) [22]	4.61
SNK-6 (IL-2 2.5 ng/mL) [23]	27.2
YT (IL-2 2.5 ng/mL) [24]	16.1
[25]	21.8
[26]	28.8
